# Source: article PMC6548501, “Sterol transfer by atypical cholesterol-binding NPC2 proteins in coral-algal symbiosis” (eLife, 2019)
# Molecular target: T1, Aiptasia non-canonical NPC2 XM_021052404 (Exaiptasia diaphana, UniProt A0A913XQG8)
# T1 construct: expressed in HEK 293T, NPC2 - five-proline linker - crmCherry - 3xHA (C-terminal), lysate, anti-HA pull-down; native protein also precipitated from Aiptasia CC7
# T1 sequence (A0A913XQG8 60-190): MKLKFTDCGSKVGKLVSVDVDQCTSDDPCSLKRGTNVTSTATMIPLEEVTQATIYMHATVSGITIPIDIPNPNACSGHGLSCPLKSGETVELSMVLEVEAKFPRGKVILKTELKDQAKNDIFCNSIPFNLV
# Experiment: immunoprecipitation-lipidomics (mass spectrometry of co-eluted sterols)
# Assay type: binding
# Settings: HEK 293T lysate mixed with Symbiodiniaceae SSB01 homogenate (sterol mixture), pH 7 or pH 5
smiles,measurement,value
CC(C)CCC[C@@H](C)[C@H]1CC[C@H]2[C@@H]3CC=C4C[C@@H](O)CC[C@]4(C)[C@H]3CC[C@]12C [cholesterol],immunoprecipitation-lipidomics (mass spectrometry of co-eluted sterols),directly bound to cholesterol and various sterols the way other NPC2 proteins normally do
